The results in this text go back to patent US6949521B2, “Therapeutic azide compounds” (priority 1995, dated 2005).

Like-named read-outs stand apart in the source and are kept apart here.

The nature of data set [1]: In vitro metabolism study of 6-AAP and ara-A in mouse liver homogenate, serum and brain homogenate.
Procedure: All the solvents were of HPLC grade. Chromatography was performed on an Altech Hypersil ODS C18 (5 μm particle size, 4.5×150 mm, Altech Associates, Deerfield, Ill.).
In vitro metabolism study. Female NIH Swiss mice (Harland Sprague-Dawley, Indianapolis, Ind.) were sacrificed and serum, liver and brain tissues were collected before each experiment. Serum was collected from several animals. The brain and liver were washed in normal saline at 4° C., wiped and then weighed. […] Samples and blanks of volume 400 μL were collected at 0, 5, 15, and 30 minutes and at 1, 2, 3, 4 and 5 hours.
To measure the analyte concentrations in serum, liver or brain homogenate, 400 μL of sample was mixed with 50 μL of internal standard (AzdU, 5 μg/mL) and 0.7 mL of acetonitrile. After centrifugation, the supernatant was decanted to another tube and treated with anhydrous Na2SO4, then vortexed for one minute and centrifuged again. The organic layer was separated and evaporated under nitrogen stream at room temperature. The residue was reconstituted in mobile phase A and filtered through MPS-I micropartition system (3KD membranes (Amicon Inc., Beverly, Mass.) by centrifugation for 50 minutes at 2000 rpm to further clean-up the samples. 100 μL of filtrate was injected for analysis.
Another data set is described as follows: in vitro. As to conditions: female, NIH Swiss, mouse, liver homogenate.
Data set [2] is described as follows: Pharmacokinetics in mouse serum after iv and oral administration of cordycepin or its azide derivative. The format is in vivo, mice. On the procedure:
100 mg/kg of cordycepin or the azide derivative of cordycepin were administered intravenously (iv) (dissolved in methylsulfoxide (20 mg/ml)), or orally (dissolved in 30% glycerin (8.3 mg/ml)). Three animals for each time point were sacrificed at 0.08, 0.25, 0.5, 0.75, 1.0, 1.5, 2.0, 3.0 and 4.0 h after drug administration. Blood (serum) was collected and immediately analyzed.
An AzdU was used as an internal standard (20 μg/ml) to measure the azide derivative concentrations in serum. Tubes were vortexed and centrifuged at 9,000 rpm for 5 min.
To neutralize, perchloric acid supernatant was transferred into a clean tube with 160 μl of concentrated sodium tetraborate solution (pH 6.5). Tubes were vortexed again and centrifuged at 12,000 rpm for 15 min. Samples were held at 0° C. during analysis.
Chromatographic separations were carried out on a Shimadzy gradient HPLC system (Shimadzy Corporation, Kyoto, Japan), which was equipped with a Model SPD-10A UV detector, a Model L-10AS pump, a Model SIL-10A autosampler, a controller Model SCL-10A and a Model CR-501 reporting integrator. Chromatography was performed on an Alltech Hypersil ODS (5 μm particle size, 4.6×250 mm, Ailtech Associates, Deerfield, Ill.) to determine cordycepin and its metabolite. The azide derivative of cordycepin was analyzed on an Alltech Hypersil BDS column (5 μm particle size, 4.6×250 mm, Alltech Associates, Deerfield, Ill.).
The mobile phase for cordycepin and metabolite analysis in serum consisted of 3% acetonitrile in 20 mM sodium borate and 10 mM EDTA (pH 6.5) at a flow of 1.4 ml/min and the mobile phase for azide derivative analysis in serum consisted of 3% acetonitrile 20 mM in potassium phosphate (pH 4.0) at a flow of 1.5 ml/min. The UV detector was set at 258 nm for analysis of cordycepin and metabolite and at 290 nm for the azide derivative.
The limit of quantitation was 0.05 μg/ml for cordycepin and metabolite and 0.5 μg/ml for the azide derivative.
Plasma concentration versus time data for nucleosides were analyzed by noncompartment methods. […] Prog. Biomed. (1983) 16:203-216.
Absolute bioavailability (F) of the azide derivative was calculated from AUCor/AUCiv, where AUC values were determined from serum nucleoside concentration versus time data.
Relative exposures for cordycepin and its metabolite in serum after or versus iv administration of the derivative were calculated from AUCor/AUCiv.

Data set [3] addresses T1, adenosine deaminase (type VII from calf intestinal mucosa) (Bos taurus, UniProt P56658).
T1 construct: type VII from calf intestinal mucosa; purchased Sigma Chemical Co., St. Louis, Mo. type VII; host or cells: calf intestinal mucosa
T1 sequence (P56658 1-363): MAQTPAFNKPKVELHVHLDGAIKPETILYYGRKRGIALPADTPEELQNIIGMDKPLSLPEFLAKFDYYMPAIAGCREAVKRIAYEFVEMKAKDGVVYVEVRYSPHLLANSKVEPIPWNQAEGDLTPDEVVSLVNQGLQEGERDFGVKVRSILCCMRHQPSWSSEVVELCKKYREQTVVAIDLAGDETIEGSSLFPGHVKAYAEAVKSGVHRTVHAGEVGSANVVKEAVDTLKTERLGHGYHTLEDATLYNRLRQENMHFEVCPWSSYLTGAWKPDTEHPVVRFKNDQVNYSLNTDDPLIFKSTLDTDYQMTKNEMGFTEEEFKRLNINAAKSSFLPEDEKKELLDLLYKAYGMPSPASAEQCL
The experiment in a line: Deamination by adenosine deaminase (2′-fluoronucleosides). The format is biochemical. As to the method: Deamination of 2′-F-ara-ddA and FMAddA by adenosine deaminase. Samples (1.5 mL) of 2′-F-ara-ddA (80 μM) or FMAddA (50 μM) were prepared in 0.05 M isotonic phosphate buffer, pH 7.4, and placed into a shaking water bath at 37° C. The reaction was initiated by the addition of 15 μL of adenosine deaminase (type VII from calf intestinal mucosa, Sigma Chemical Co., St. Louis, Mo.). The final activity in the incubation media was 0.05 U/mL for 2′-F-ara-ddA and 1.0 U/mL for FMAddA. At specified time intervals, aliquots of 100 μL were withdrawn for the determination of 2′-F-ara-ddA and 2′-F-ara-ddI or FMAddA and 2′-F-ara-ddI concentrations.
Mobile phase flow rate was 2 mL/min.

The nature of data set [4]: In vitro stability in PBS, mouse serum, brain and liver homogenate (FAAddP, FMAddA). It counts as in vitro ADME. As to the method: In vitro stability in serum, brain and liver homogenate. Liver and brain homogenate were prepared in a 1: 1 (g:mL) ratio with isotonic 0.05 M phosphate buffer, pH 7.4. FAAddP (70 μM) or FMAddA (50 μM) were added to the mouse serum, the brain homogenate or the liver homogenate and incubated in a shaker water bath at 37° C. Aliquots of 100 μL were removed at time zero and at selected times for up to 6 hours. Concentrations of the compounds were determined by HPLC.
(§1) Analytical Methodology. […] The brain or liver tissue were homogenized in a 1:1 (g:mL) ratio with ice cold isotonic 0.05 M phosphate buffer, pH 7.4. […] Acetonitrile (600 μL) containing 0.1% acetic acid was added while vortexing to precipitate proteins. The tubes were centrifuged at 3,000 rpm for five minutes and the supernatant was transferred to a clean tube. Supernatant was evaporated to dryness under a stream of nitrogen gas at room temperature. The residual film was reconstituted in 110 μL of mobile phase and 50 μL was injected onto the HPLC.
(§2) Chromatographic separations were performed using a Hypersil ODS column 150×4.5 mm, 5 μm particle size (Alltech Associates, Deerfield, Ill.) preceded by a guard column packed with 30-40 μm pellicular Perisorb RP-18. Mobile phase flow rate was 2 mL/min. For the analysis of FAAddP and 2′-F-ara-ddA, the mobile phase consisted of 7% (v/v) acetonitrile in 80 mM sodium acetate, pH 5.0. […] Eluants were monitored at a UV wavelength of 260 nm.
(§3) Nucleoside standards ranging from 0.04 μg/mL to 100 μg/mL, prepared in blank PBS, serum, brain homogenate and liver homogenate were treated the same as unknown samples. Samples with nucleoside concentrations greater than 100 μg/mL were diluted with the appropriate blank matrix.
Data analysis in vitro studies.

A further data set in a line: in vivo. The following applies: mouse, in vivo.
Excerpt: Animal studies. […] Animal studies were approved by the University of Georgia Animal Care and Use Committee and conducted in accordance with guidelines established by the Animal Welfare Act and the National Institutes of Health Guide for the Care and Use of Laboratory Animals. […] Animals were acclimatized to this environment for one week prior to the experiments.
At selected time intervals, mice (three animals per each time point) were anesthetized with diethyl ether and sacrificed by exsanguination via left ventricular heart puncture. Serum was harvested from blood collected. The brain was excised, rinsed with normal saline, blotted dry and weighed.
as §1, §2, §3
Data analysis in vivo studies. Nucleoside concentration as a function of time data were analyzed by a non-compartmental technique. […] Relative brain exposure (re) was calculated from AUCbrain/AUCserum.

The mark [5] stands for this setting: 6-AAP incubated in mouse liver homogenate.
Where [6] appears, read: mouse serum, after iv azide derivative 100 mg/kg.
Where [7] appears, read: mouse serum, after oral azide derivative 100 mg/kg.
[8] abbreviates: female, NIH Swiss, mouse, in vivo, po, 100 mg/kg.
The mark [9] stands for this setting: female, NIH Swiss, mouse, in vivo, iv, 100 mg/kg.

As to `O=c1[nH]cnc2c1ncn2[C@@H]1O[C@H](CO)[C@@H](O)[C@@H]1O` [Ara-H, 9-(β-D-arabinofuranosyl)hypoxanthine], in data set [1] (setting [5]), the Kel was determined as 0.26 h⁻¹ and the T1/2 was 147 min. Further, the Kel in data set [1] (Ara-A incubated in mouse liver homogenate) turned out to be 0.31 h⁻¹. This molecule showed a half-life at 100 μg/mL in “in vitro” of 134 min.
Regarding `[N-]=[N+]=Nc1ncnc2c1ncn2[C@@H]1O[C@H](CO)C[C@H]1O` [Azide Deriv., N^6-azido-β-D-3′-deoxyribofuranosyl purine], the “absolute bioavailability after oral administration” value in data set [2] (mice, azide derivative) amounted to 94%. Further, in data set [2] (setting [6]), the “AUC0→∞ iv” value was 47200 ± 4010 ng·h/mL, the “Cmax (maximal measured concentration) iv” value was 143000 ± 33400 ng/mL and the T½ iv was 21.6 min. Further, the T½ iv in data set [2] (mouse serum, after iv azide derivative 100 mg/kg, listed as azide derivative) came out at 21 min. Further, in data set [2] (setting [7]), the “AUC0→∞ oral” value turned out to be 44500 ± 2780 ng·h/mL, the “Cmax (maximal measured concentration) oral” value came out at 48200 ± 12300 ng/mL and the T½ oral stood at 31.8 min.
Turning to `Nc1ncnc2c1ncn2[C@@H]1O[C@H](CO)C[C@H]1O` [Cordycepin, 3′-deoxyadenosine, reference compound], the AUC(0-inf) stood at 2170 ± 350 ng·h/mL in data set [2] (female, NIH Swiss, in vivo, mouse serum, after iv azide derivative 100 mg/kg, read-out: AUC0→∞ iv) and 1630 ± 150 ng·h/mL in data set [2] (female, NIH Swiss, in vivo, mouse serum, after oral azide derivative 100 mg/kg, read-out: AUC0→∞ oral). Besides, the Cmax was determined as 3890 ± 1720 ng/mL in data set [2] (female, NIH Swiss, in vivo, mouse serum, after iv azide derivative 100 mg/kg, read-out: Cmax (maximal measured concentration) iv) and 1180 ± 600 ng/mL in data set [2] (female, NIH Swiss, in vivo, mouse serum, after oral azide derivative 100 mg/kg, read-out: Cmax (maximal measured concentration) oral). Moreover, the half-life in data set [2] (female, NIH Swiss, in vivo, mouse serum, after iv azide derivative 100 mg/kg, read-out: T½ iv (converted)) was 14.4 min; in data set [2] (female, NIH Swiss, in vivo, mouse serum, after oral azide derivative 100 mg/kg, read-out: T½ oral (converted)), 45.6 min. Moreover, the “time of detection of cordycepin in serum above 0.05 μg/ml, iv” value in data set [2] (female, NIH Swiss, mouse, in vivo, iv) is at most 1.5 h. Moreover, the “time of detection of cordycepin in serum above 0.05 μg/ml, oral” value in data set [2] (female, NIH Swiss, mouse, in vivo, po) is reported as at most 3 h. Besides, the detection in serum entry in data set [2] (setting [8]) was “Neither 3′-deoxyinosine nor cordycepin were detected”. Besides, the “re - relative exposure: AUC ratio oral vs. intravenous (AUCor/AUCiv)” value in data set [2] (mouse serum, after azide derivative 100 mg/kg) amounted to 0.75. Further, the “cordycepin in serum samples collected 10 min later” value in data set [2] (mouse, in vivo, iv, 100 mg/kg) is “not recovered”. For the same molecule, the “cordycepin in serum samples collected at 5 min” value in data set [2] (mouse, in vivo, iv, 100 mg/kg) is on record as “trace amount”.
For `CNc1ncnc2c1ncn2[C@@H]1O[C@H](CO)C[C@@H]1F` [FMAddA, N^6-methyl-2′,3′-dideoxy-2′-fluoro-β-D-arabinofuranosyladenine], the “t½ upon addition of adenosine deaminase to PBS” value in data set [3] (PBS + adenosine deaminase) worked out at 27.6 min. Further, the “extent of conversion to 2′-F-ara-ddI upon addition of adenosine deaminase” value in data set [3] (PBS and brain homogenate + adenosine deaminase) was “virtually all of the prodrug was converted”. For the same molecule, in data set [3] (brain homogenate + adenosine deaminase), the “t1/2 upon addition of adenosine deaminase to brain homogenate” value was 222 min. In addition, the “stability in phosphate buffer saline” value in data set [4] (PBS pH 7.4, 37° C.) is “stable”. The “half-life in brain homogenate” value in data set [4] (mouse brain homogenate) is reported as “stable”. Moreover, in data set [4] (mouse liver homogenate), the “t1/2 in liver homogenate (metabolized to 2′-F-ara-ddI)” value came out at 546 min. For the same molecule, the “degradation half-life in mouse serum” value in data set [4] (mouse serum, 37° C.) is given as “stable”. For the same molecule, the “intravenously administered dose of prodrug converted to 2′-F-ara-ddI” value in the data set “in vivo” was found to be 5.6%. In addition, in the data set “in vivo” (iv), the “Steady-state volume of distribution” value is 0.79 L/kg and the Total clearance amounted to 32.2 mL/min/kg.
On to `O=c1[nH]cnc2c1ncn2[C@@H]1O[C@H](CO)C[C@H]1O` [Metabolite, 3′-deoxyinosine], for which, in data set [2] (setting [9]), the AUC(0-inf) is 3680 ± 260 ng·h/mL and the half-life is 30 min. In data set [2] (setting [8]), the AUC(0-inf) amounted to 5890 ± 590 ng·h/mL, the detection in serum result was “Neither 3′-deoxyinosine nor cordycepin were detected” and the half-life is 39 min.
